We go through six molecules from ChEMBL document CHEMBL1155426, “Discovery of a novel series of semisynthetic vancomycin derivatives effective against vancomycin-resistant bacteria” (J Med Chem, 2010).

As a reminder, the MIC is the lowest concentration that inhibits growth of the organism. A low value points to greater potency. What is called Kd is a measure of binding affinity in units of concentration.

The structures appear in SMILES notation. Values after ≈ are worked out from the molar mass of the structure shown. Some results are limits rather than exact numbers.

Assay [1] relates to Staphylococcus aureus. In words: Antibacterial activity against vancomycin-susceptible Staphylococcus aureus RN4220. The format is functional.
Assay [2] deals with Enterococcus faecalis. The assay is described as follows: Antibacterial activity against vancomycin A-resistant Enterococcus faecalis SR-7914. The format is functional. To be noted: SR7914.
For assay [3], the system named is Enterococcus faecium. In words: Antibacterial activity against vancomycin-susceptible Enterococcus faecium SR-16972. The assay is classed as functional. To be noted: SR16972.
In assay [4] the test system is Enterococcus faecalis. In words: Antibacterial activity against vancomycin B-resistant Enterococcus faecalis SR-23630. The assay is classed as functional. The following applies: SR23630.
The subject of assay [5] is Enterococcus faecalis. In words: Antibacterial activity against vancomycin-susceptible Enterococcus faecalis SR1004. The format is functional.
The subject of assay [6] is Enterococcus faecium. In words: Antibacterial activity against vancomycin B-resistant Enterococcus faecium SR-23598. The format is functional. The following applies: SR23598.
The test system of assay [7] is Staphylococcus aureus. In words: Antibacterial activity against methicillin-resistant vancomycin-susceptible Staphylococcus aureus SR-3637. The assay is classed as functional. To be noted: SR3637.
Assay [8] concerns Enterococcus faecium. The assay is described as follows: Antibacterial activity against vancomycin A-resistant Enterococcus faecium SR-7940. The following applies: SR7940. The assay is classed as functional.
In assay [9] the test system is Staphylococcus aureus. The assay is described as follows: Antibacterial activity against vancomycin A-resistant Staphylococcus aureus VRS2. The format is functional.
Assay [10] is described as follows: Binding affinity to 8-Amino-octanoyl-D-Ala-D-Ala peptide by surface plasmon resonance. A general note: SPR reads the build-up and loss of mass on a sensor chip optically.

As to `CN[C@H](CC(C)C)C(=O)N[C@H]1C(=O)N[C@@H](CC(N)=O)C(=O)N[C@H]2C(=O)N[C@H]3C(=O)N[C@H](C(=O)N[C@H](C(=O)O)c4cc(O)cc(O)c4-c4cc3ccc4O)[C@H](O)c3ccc(c(-c4ccc(OC)cc4)c3)Oc3cc2cc(c3O[C@@H]2O[C@H](CO)[C@@H](O)[C@H](O)[C@H]2O[C@H]2C[C@](C)(N)[C@H](O)[C@H](C)O2)Oc2ccc(cc2Cl)[C@H]1O`, the minimum inhibitory concentration (MIC) in the assay on Staphylococcus aureus [1] was 4 µg/mL (≈ 2.63 µM); in the assay on Enterococcus faecalis [2] it was greater than 64 µg/mL; against Enterococcus faecium [3], 2 µg/mL (≈ 1.31 µM); with Enterococcus faecalis [4] it was greater than 64 µg/mL; against Enterococcus faecalis [5] it was 4 µg/mL (≈ 2.63 µM); in the assay on Enterococcus faecium [6] it was greater than 64 µg/mL. Besides, the minimum inhibitory concentration (MIC) is 4 µg/mL (≈ 2.63 µM) with Staphylococcus aureus [7], greater than 64 µg/mL with Enterococcus faecium [8] and greater than 64 µg/mL with Staphylococcus aureus [9].

In the case of `CN[C@H](CC(C)C)C(=O)N[C@H]1C(=O)N[C@@H](CC(N)=O)C(=O)N[C@H]2C(=O)N[C@H]3C(=O)N[C@H](C(=O)N[C@H](C(=O)O)c4cc(O)cc(O)c4-c4cc3ccc4O)[C@H](O)c3ccc(c(/C=C/CCCc4ccccc4)c3)Oc3cc2cc(c3O[C@@H]2O[C@H](CO)[C@@H](O)[C@H](O)[C@H]2O[C@H]2C[C@](C)(N)[C@H](O)[C@H](C)O2)Oc2ccc(cc2Cl)[C@H]1O`, the MIC against Staphylococcus aureus [1] was 1 µg/mL (≈ 0.641 µM); against Enterococcus faecalis [2], greater than 64 µg/mL; against Enterococcus faecium [3] it was 2 µg/mL (≈ 1.28 µM); in the assay with Enterococcus faecalis [4] it was greater than 64 µg/mL; in the assay on Enterococcus faecalis [5] it was 1 µg/mL (≈ 0.641 µM); in the assay with Enterococcus faecium [6] it was greater than 64 µg/mL. For the same molecule, the minimum inhibitory concentration (MIC) against Staphylococcus aureus [7] is 2 µg/mL (≈ 1.28 µM); with Enterococcus faecium [8], greater than 64 µg/mL; in the assay with Staphylococcus aureus [9], greater than 64 µg/mL.

Regarding `CN[C@H](CC(C)C)C(=O)N[C@H]1C(=O)N[C@@H](CC(N)=O)C(=O)N[C@H]2C(=O)N[C@H]3C(=O)N[C@H](C(=O)N[C@H](C(=O)O)c4cc(O)cc(O)c4-c4cc3ccc4O)[C@H](O)c3ccc(c(/C=C/c4ccc(-c5ccccc5)cc4)c3)Oc3cc2cc(c3O[C@@H]2O[C@H](CO)[C@@H](O)[C@H](O)[C@H]2O[C@H]2C[C@](C)(N)[C@H](O)[C@H](C)O2)Oc2ccc(cc2Cl)[C@H]1O`, the minimum inhibitory concentration (MIC) in the assay with Staphylococcus aureus [1] stood at 0.25 µg/mL (≈ 0.157 µM); with Enterococcus faecalis [2] it was 32 µg/mL (≈ 20.1 µM); with Enterococcus faecium [3], 0.25 µg/mL (≈ 0.157 µM); against Enterococcus faecalis [4], 2 µg/mL (≈ 1.26 µM); against Enterococcus faecalis [5] it was 0.25 µg/mL (≈ 0.157 µM); with Enterococcus faecium [6] it was 0.5 µg/mL (≈ 0.314 µM). Besides, the values for the MIC against Staphylococcus aureus [7], against Enterococcus faecium [8] and in the assay on Staphylococcus aureus [9] were 0.5 µg/mL (≈ 0.314 µM), 64 µg/mL (≈ 40.2 µM) and greater than 64 µg/mL, respectively.

On to `C/C=C/c1cc2ccc1Oc1cc3cc(c1O[C@@H]1O[C@H](CO)[C@@H](O)[C@H](O)[C@H]1O[C@H]1C[C@](C)(N)[C@H](O)[C@H](C)O1)Oc1ccc(cc1/C=C/C)[C@@H](O)[C@@H](NC(=O)[C@@H](CC(C)C)NC)C(=O)N[C@@H](CC(N)=O)C(=O)N[C@H]3C(=O)N[C@H]1C(=O)N[C@H](C(=O)N[C@H](C(=O)O)c3cc(O)cc(O)c3-c3cc1ccc3O)[C@@H]2O`, for which the minimum inhibitory concentration (MIC) is 1 µg/mL (≈ 0.685 µM) with Staphylococcus aureus [1]; greater than 64 µg/mL in the assay on Enterococcus faecalis [2]; 1 µg/mL (≈ 0.685 µM) with Enterococcus faecium [3]; greater than 64 µg/mL against Enterococcus faecalis [4]; 2 µg/mL (≈ 1.37 µM) in the assay with Enterococcus faecalis [5]; greater than 64 µg/mL in the assay with Enterococcus faecium [6]. In addition, the MIC against Staphylococcus aureus [7] is 2 µg/mL (≈ 1.37 µM); against Enterococcus faecium [8] it was greater than 64 µg/mL; in the assay on Staphylococcus aureus [9], 64 µg/mL (≈ 43.8 µM).

For `C/C=C/c1cc2ccc1Oc1cc3cc(c1O[C@@H]1O[C@H](CO)[C@@H](O)[C@H](O)[C@H]1O[C@H]1C[C@](C)(N)[C@H](O)[C@H](C)O1)Oc1ccc(cc1/C=C/CCCCCC)[C@@H](O)[C@@H]1NC(=O)[C@H](NC(=O)[C@@H]3NC(=O)[C@H](CC(N)=O)NC(=O)[C@H](NC(=O)[C@@H](CC(C)C)NC)[C@@H]2O)c2ccc(O)c(c2)-c2c(O)cc(O)cc2[C@@H](C(=O)O)NC1=O`, the minimal inhibitory concentration (MIC) against Staphylococcus aureus [1] was 32 µg/mL (≈ 20.9 µM); against Enterococcus faecalis [2] it was greater than 64 µg/mL; with Enterococcus faecium [3], 32 µg/mL (≈ 20.9 µM); in the assay with Enterococcus faecalis [4], greater than 64 µg/mL; against Enterococcus faecalis [5] it was 32 µg/mL (≈ 20.9 µM); with Enterococcus faecium [6] it was greater than 64 µg/mL. Also, the MIC was 64 µg/mL (≈ 41.8 µM) against Staphylococcus aureus [7], greater than 64 µg/mL with Enterococcus faecium [8] and greater than 64 µg/mL against Staphylococcus aureus [9].

As to `CN[C@H](CC(C)C)C(=O)N[C@H]1C(=O)N[C@@H](CC(N)=O)C(=O)N[C@H]2C(=O)N[C@H]3C(=O)N[C@H](C(=O)N[C@H](C(=O)O)c4cc(O)cc(O)c4-c4cc3ccc4O)[C@H](O)c3ccc(c(Cl)c3)Oc3cc2cc(c3O[C@@H]2O[C@H](CO)[C@@H](O)[C@H](O)[C@H]2O[C@H]2C[C@](C)(N)[C@H](O)[C@H](C)O2)Oc2ccc(cc2Cl)[C@H]1O` [VANCOMYCIN], the MIC is greater than 64 µg/mL in the assay on Enterococcus faecalis [2]; 2 µg/mL (≈ 1.38 µM) with Enterococcus faecalis [5]; greater than 64 µg/mL against Enterococcus faecium [6]; greater than 64 µg/mL in the assay on Enterococcus faecium [8]; greater than 64 µg/mL against Staphylococcus aureus [9]. This molecule displayed an equilibrium dissociation constant (Kd) in [10] of 3.39 µM.
